Publication PMC12881674, “Activation of TRPV3 channels in bladder cancer cells stimulates ATP release” (Molecular Pharmacology, 2025)
Read-outs that look alike come from different tables or passages of the source.

Target: T1, TRPV3 in KU-19-19 cells (Homo sapiens, UniProt Q8NET8)
T1 construct: host or cells: KU-19-19
T1 sequence (Q8NET8 1-790): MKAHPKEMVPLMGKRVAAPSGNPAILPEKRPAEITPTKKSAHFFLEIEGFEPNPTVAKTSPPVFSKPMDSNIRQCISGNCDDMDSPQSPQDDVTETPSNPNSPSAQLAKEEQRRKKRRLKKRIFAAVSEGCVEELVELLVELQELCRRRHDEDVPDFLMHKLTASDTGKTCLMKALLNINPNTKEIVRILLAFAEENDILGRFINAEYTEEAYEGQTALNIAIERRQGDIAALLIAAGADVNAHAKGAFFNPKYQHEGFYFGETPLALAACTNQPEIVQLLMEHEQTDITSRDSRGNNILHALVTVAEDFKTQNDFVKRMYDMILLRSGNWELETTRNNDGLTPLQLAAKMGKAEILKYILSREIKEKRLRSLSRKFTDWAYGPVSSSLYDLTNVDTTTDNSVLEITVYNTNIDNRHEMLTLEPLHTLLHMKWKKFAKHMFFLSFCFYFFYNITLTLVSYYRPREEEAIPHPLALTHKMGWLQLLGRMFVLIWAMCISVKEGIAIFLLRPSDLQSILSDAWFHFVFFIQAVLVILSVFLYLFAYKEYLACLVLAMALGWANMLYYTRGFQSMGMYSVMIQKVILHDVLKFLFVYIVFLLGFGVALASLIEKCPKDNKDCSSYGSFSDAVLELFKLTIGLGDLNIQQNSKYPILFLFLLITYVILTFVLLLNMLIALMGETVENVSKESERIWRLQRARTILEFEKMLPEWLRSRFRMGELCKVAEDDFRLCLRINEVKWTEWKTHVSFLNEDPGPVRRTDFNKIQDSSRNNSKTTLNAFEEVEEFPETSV
Assay: calcium assay concentration-response in KU-19-19 cells
Type: cell-based
Conditions: read-out: EC50 for AV3-1-induced TRPV3 activation in KU-19-19 cells
Protocol: Supplementation of the cellular cholesterol content in KU-19-19 cells was performed by adding cholesterol-loaded methyl-β-cyclodextrin (MβCD) to the cells. Cholesterol was dissolved in ethanol (20 mg/mL) by heating at 65 °C for 15 minutes. The cholesterol solution was then added dropwise to a 250 mM MβCD solution prepared in phosphate-buffered solution (PBS; Sigma Aldrich) at a 1:4 (v/v) ratio, yielding a stock containing 200 mM MβCD-cholesterol. KU-19-19 cells were incubated for 15 minutes at 37 °C in HBS containing 2.5 mM MβCD-cholesterol. As a control, KU-19-19 cells were incubated in HBS without MβCD-cholesterol supplement under the same conditions.
All fluorometric Ca^2+ assays were performed in HBS buffer at room temperature. […] For the primary compound screening and the generation of concentration-response analyses, a robotic liquid handling station (Freedom Evo 150; Tecan) with a built-in custom-made fluorescence plate imager was used. […] Fluorescence was excited using a 470-nm light-emitting diode, and emitted light was imaged through a 515-nm–long pass filter with a cooled Zyla 5.5 camera (Andor). Fluorescence was recorded and processed under the control of the μ-Manager 2.0 gamma software (https://micro-manager.org.[28]). After recording baseline fluorescence, compounds were dispensed into the wells via the liquid handling device. […]

**Q.** What does the source list for `COC(=O)C12CN(Cc3ccccc3)CC1(C(=O)OC)CN(Cc1ccccc1)C2` (centres unmarked) [AV3-1]?
**A.** EC50 (cells not supplemented with cholesterol): 19 ± 1.5 µM; EC50 (cholesterol supplementation (2.5 mM MβCD-cholesterol)): 6.3 ± 1.9 µM
